The structures appear in SMILES notation.

This data set is described as follows: gradient 5% acetonitrile 3 min, to 50% in 2 min, to 85% in 15 min, held 3 min, 100 µL/min. Conditions: column: Zorbax Extend-C18 2.1 x 50 mm; eluents: water / acetonitrile, 0.1% formic acid. A digest of the protocol:
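Mixtures of ~100 pure standards were chromatographed on a Zorbax Extend-C18 column (2.1 × 50 mm, 1.8 μm) at 100 μL/min using water and acetonitrile, each with 0.1% formic acid. Detection used a quadrupole time-of-flight mass spectrometer in positive and negative ionization mode, and data collection spanned 3 months. Retention time was obtained from adduct peaks picked computationally and each checked manually.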
As for `CC1CCN(CCCNC(=O)c2nc(CCS(=O)(=O)c3ccc(F)cc3)no2)CC1`, the RP-LC retention time is 634 s.

The compound `Cc1cc(S(=O)(=O)N2CCC(n3cnnc3C3CC3)CC2)ccc1Cl` came in with an RP-LC retention time of 784 s.

Take `O=C1NC2(CCN(C(=O)c3ccccc3)CC2)N=C1c1cccc(F)c1`: the RP-LC retention time was determined as 748 s.

As for `Cc1ccc2c(c1)OCC(=O)N2Cc1nc(-c2ccc(Br)cc2)no1`, the RP-LC retention time turned out to be 1180 s.

`O=C(CCc1nnc(C(=O)Nc2ccccc2)s1)NCCc1c[nH]c2ccc(Cl)cc12` showed an RP-LC retention time of 921 s.

`CC(=O)Nc1ccc(-c2nc(-c3ccc4c(c3)oc(=O)n4C(C)C)no2)cc1`: the RP-LC retention time turned out to be 943 s.

As for `O=C(c1cc(F)ccc1F)N1CCCC1c1nc(-c2ccc(F)cc2)no1` (centres undefined), the RP-LC retention time was determined as 1030 s.

Turning to `CCN1C(=O)c2cccnc2Sc2cc(NC(=O)c3ccc(F)c(Cl)c3)ccc21`, the RP-LC retention time is 964 s.

`COc1cccc(NC(=O)Cn2nc3n(c2=O)CCCCC3)c1` registered an RP-LC retention time of 668 s.

The compound `CC(=O)N1CCc2sc(S(=O)(=O)N3CCN(c4ccccc4C)CC3)cc2C1` came in with an RP-LC retention time of 995 s.

On to `O=C(CN1C(=O)c2ccccc2C1=O)Nc1cccc(-c2cn3c(n2)SCC3)c1`, for which the RP-LC retention time turned out to be 581 s.

`O=S(=O)(c1ccc(F)c(F)c1)N1CCCC(Cn2c(C3CC3)nc3cccnc32)C1` (centres undefined) displayed an RP-LC retention time of 782 s.

`COc1ccc(C2=NC3(CCN(C(C)C)CC3)NC(c3ccccc3O)C2)cc1` (centres undefined): the RP-LC retention time amounted to 592 s.

Take `CCOc1ccc(-c2nc(C3CC(=O)N(c4ccc(OC)c(OC)c4)C3)no2)cc1` (centres undefined): the RP-LC retention time turned out to be 912 s.

Consider `O=C(Nc1nc(-c2ccc(F)cc2)cs1)c1cccc(F)c1`, for which the RP-LC retention time was 1060 s.

In turn, `CN(Cc1ccccc1)C(=O)CN1C(=O)C2CCCCN2c2ccc(S(=O)(=O)N(C)C)cc21` (centres undefined) displayed an RP-LC retention time of 939 s.

`Cc1ccc(-n2ccn3cc(-c4ccc(F)cc4F)nc3c2=O)cc1Cl` gave an RP-LC retention time of 1000 s.

In the case of `CCCN(Cc1ccc(F)cc1)Cc1cc(=O)n2cc(Cl)ccc2n1`, the RP-LC retention time was 659 s.

With `O=c1c2sccc2n(Cc2nc(-c3ccc(F)c(Cl)c3)no2)c(=O)n1CCc1ccccc1`, the RP-LC retention time was 1230 s.

Consider `O=c1n(CCOc2ccccc2)nc2c(S(=O)(=O)N3CCCC3)cccn12`, for which the RP-LC retention time was determined as 794 s.

In turn, `CCOc1ccc(S(=O)(=O)N2CCCC(C(=O)NCC3CCCO3)C2)cc1` (centres undefined) yielded an RP-LC retention time of 788 s.

The compound `CCCN1CCn2cc(S(=O)(=O)Nc3ccc(OC)c(Cl)c3)cc2C1=O` yielded an RP-LC retention time of 770 s.

Turning to `Clc1cccc(-c2noc(Cc3nc(-c4ccc5c(c4)OCO5)cs3)n2)c1`, the RP-LC retention time is 1250 s.

On to `CCN1C(=O)COc2ccc(-c3noc(/C=C/c4ccc(C)cc4)n3)cc21`, for which the RP-LC retention time is 1230 s.

`c1ccc2c(c1)OCC(c1nc(-c3ccc(-n4ccnc4)nc3)no1)O2` (centres undefined) gave an RP-LC retention time of 707 s.

`Cc1nc2cc(N3CC(C(=O)NCc4cccc(Cl)c4)CC3=O)ccc2o1` (centres undefined) registered an RP-LC retention time of 734 s.

For `CCn1nccc1C(=O)N1CC(n2cc(C(=O)N3CCOCC3)nn2)C1`, the RP-LC retention time was 610 s.

In turn, `CCOc1ccc(-c2c(C)nn3c(C)c(C(=O)NCC4CCCN4CC)cnc23)cc1OCC` (centres undefined) returned an RP-LC retention time of 667 s.

For the compound `COc1ccc(N(Cc2nnc3n2CCCCC3)C(=O)Nc2ccccc2)c(OC)c1`, the RP-LC retention time came to 713 s.

For the compound `O=S(=O)(Nc1ccc(F)c(F)c1)c1ccc2nncn2c1`, the RP-LC retention time is 694 s.

Compound `CCOc1ccccc1-c1noc(Cn2c(=O)n(-c3ccc(OC)cc3)c(=O)c3sccc32)n1` gave an RP-LC retention time of 962 s.

`Cc1ccc(N2CCC(NC(=O)Nc3cccc(C)c3C)C2=O)cc1C` (centres undefined) gave an RP-LC retention time of 906 s.

As for `Cc1ccc(CNC(=O)CC2CCN(C(=O)c3[nH]c(C)cc3C)CC2)cc1`, the RP-LC retention time was found to be 797 s.

In the case of `Cc1nc(C2CCCN2Cc2ccccc2C)n[nH]1` (centres undefined), the RP-LC retention time turned out to be 546 s.

In turn, `Cc1nc(OCC(=O)Nc2ccc(Cl)c(C(F)(F)F)c2)c2ccccc2n1` returned an RP-LC retention time of 892 s.

As to `O=C(O)CCc1conc1-c1ccccc1F`, the RP-LC retention time is 712 s.

The compound `O=C(Nc1ccccc1Cl)c1c(O)c2cccnc2n(-c2cccc(F)c2)c1=O` returned an RP-LC retention time of 1270 s.

Compound `Cc1ccc(Cn2c(N3CCCC(C(=O)NCc4ccc(F)cc4)C3)nc3ccsc3c2=O)cc1` (centres undefined) yielded an RP-LC retention time of 993 s.

Consider `COc1cc(NS(=O)(=O)c2cn(C(C)C)c3ncccc23)cc(OC)c1`, for which the RP-LC retention time is 876 s.

In turn, `CCOC(=O)c1c(NCc2ccc(F)cc2)c2ccc(Cl)cc2[nH]c1=O` gave an RP-LC retention time of 858 s.

`COc1ccc(Br)cc1CNC(=O)Cn1cnc2nc3c(cc2c1=O)CC(C)CC3` (centres undefined) returned an RP-LC retention time of 845 s.

`CCCN1CCN(c2ccc(-c3nc(-c4cccc(F)c4)no3)cn2)CC1`: the RP-LC retention time stood at 739 s.

In the case of `Cc1cccc(S(=O)(=O)N2CCC(c3nc(C(=O)N4CCCC4)c(C)o3)CC2)c1`, the RP-LC retention time came to 902 s.

Compound `Cc1ccc(CNC(=O)C2CCCN(c3ncnc4c3nc3n4CCCCC3)C2)cc1` (centres undefined) had an RP-LC retention time of 793 s.

Regarding `CN(CC1CCOCC1)C(=O)c1ccsc1`, the RP-LC retention time is 643 s.

As for `O=C(NCCN1CCCCC1)C1CCN(c2ccc(-c3ccc(F)cc3)nn2)CC1`, the RP-LC retention time was determined as 567 s.

With `O=C(Cc1c[nH]c2ccccc12)NCC1CCN(c2cc(-c3ccncc3)[nH]n2)CC1`, the RP-LC retention time amounted to 595 s.

Compound `O=C(c1ccccc1Br)N1CCN(Cc2noc3ccccc23)CC1` registered an RP-LC retention time of 760 s.

Take `Cc1nc(Nc2nccc(-c3ccccc3)n2)nc2ccccc12`: the RP-LC retention time came to 677 s.

In turn, `Cc1ccn2c(Nc3ccccc3C)c(-c3cccc(O)c3)nc2c1` registered an RP-LC retention time of 673 s.

`Cc1cc(=O)n(CC(=O)Nc2ccc3c(c2)OCCO3)c(N2CCOCC2)n1`: the RP-LC retention time is 634 s.

For the compound `O=C(NC1CCCc2ccccc21)C1CCN(C(=O)c2cccn2-c2cccnc2)CC1` (centres undefined), the RP-LC retention time turned out to be 742 s.

For `O=C(NCc1ccccc1)NC1CCN(c2nc3cccnc3n(Cc3ccccc3)c2=O)CC1`, the RP-LC retention time turned out to be 1020 s.

Consider `Cc1ccn2cc(C(=O)NC(C)c3ccc(F)cc3)nc2c1` (centres undefined), for which the RP-LC retention time was determined as 670 s.

The compound `CC(C)NC(=O)c1ccc(-c2nc3cc(NS(=O)(=O)c4ccc(F)cc4)ccc3n2C)cc1` displayed an RP-LC retention time of 684 s.

Compound `N#Cc1ccc(-c2nc(C3CC(=O)N(c4ccc(Cl)cc4)C3)no2)cc1` (centres undefined) registered an RP-LC retention time of 996 s.

For `c1ccc(SCc2nnc3sc(-c4cccnc4)nn23)cc1`, the RP-LC retention time turned out to be 742 s.

Compound `Cc1ccn2cc(-c3ccc(NC(=O)c4ccccc4Br)cc3)nc2n1` had an RP-LC retention time of 647 s.

Take `CCOc1ccccc1NC(=O)N1c2ccccc2CC1c1nc(C(C)C)no1` (centres undefined): the RP-LC retention time worked out at 1220 s.

`O=C(Nc1cccc(-c2ccc(N3CCCCC3)nn2)c1)Nc1ccccc1F` registered an RP-LC retention time of 742 s.

Regarding `O=C(NC1CC1)C1CCN(c2nc(-c3ccc(Cl)cc3)no2)CC1`, the RP-LC retention time came to 859 s.

`Cc1ccc(Cl)cc1NC(=O)CC1C(=O)NCCN1C(=O)NC1CCCCC1` (centres undefined) gave an RP-LC retention time of 766 s.

In the case of `COc1ccc(NC(=O)C2CC(=O)N(c3ccc4c(c3)CCN4C(C)=O)C2)cc1OC` (centres undefined), the RP-LC retention time amounted to 642 s.

`N#Cc1ccc(C(=O)NCCn2c(C(F)(F)F)nc3cccnc32)cc1` gave an RP-LC retention time of 720 s.

For the compound `O=C(NCc1ccc2c(c1)OCO2)C1CCN(C(=O)c2cc(-c3ccncc3)n[nH]2)CC1`, the RP-LC retention time amounted to 579 s.

On to `O=C(Cn1nc(N2CCOCC2)c2ccccc2c1=O)Nc1ccc(Br)cc1F`, for which the RP-LC retention time stood at 894 s.

The compound `Cc1cccc(N2CCN(C(=O)C3CCN(c4cnc5nccnc5c4)CC3)CC2)c1` had an RP-LC retention time of 749 s.

Take `CCOC(=O)c1ccsc1NC(=O)c1cc(C)nn1CC`: the RP-LC retention time stood at 1080 s.

With `Cc1cc(N2CCN(C(=O)Nc3cccc(C(F)(F)F)c3)CC2)nc(N2CCCC2)n1`, the RP-LC retention time is 760 s.

In turn, `CCC(=O)NC(C)c1nc(-c2ccccc2Cl)no1` (centres undefined) showed an RP-LC retention time of 740 s.

In turn, `COc1cccc(NC(=O)Cn2nc(C(=O)N3CCCC3)c3ccccc32)c1` gave an RP-LC retention time of 792 s.

Turning to `Cc1oc(-c2[nH]ncc2C(=O)N(C)C)cc1S(=O)(=O)NCC(C)C`, the RP-LC retention time was determined as 671 s.

In turn, `Cn1ccnc1N1CCN(C(=O)CSCc2ccccc2)CC1` registered an RP-LC retention time of 571 s.

Regarding `Cn1nc(CO)c2c1CCN(C(=O)c1ccc3[nH]ccc3c1)C2`, the RP-LC retention time was 591 s.

`CCCNS(=O)(=O)c1cc(-c2c(CC)noc2NC(C)=O)ccc1C` showed an RP-LC retention time of 747 s.

In the case of `CCC1Oc2ccc(S(=O)(=O)N3CCC(C(=O)N(C)c4ccc(C)cc4)CC3)cc2NC1=O` (centres undefined), the RP-LC retention time stood at 837 s.

As for `CCCCOc1ccc(C(=O)Nc2ccc(F)cc2F)cc1`, the RP-LC retention time was 1130 s.

`O=S(=O)(c1cc(Cl)ccc1Cl)N1CCc2nc(-c3ccc(F)cc3)ncc2C1` registered an RP-LC retention time of 1240 s.

The compound `O=S(=O)(Oc1ccc(Cl)cc1)c1cccc2cccnc12` showed an RP-LC retention time of 1050 s.

The record behind these values is the METLIN SMRT retention time set (Domingo-Almenara et al. 2019).
